Test results from patent US20230192705A1, “SHP2 INHIBITORS, COMPOSITIONS AND USES THEREOF” (Betta Pharmaceuticals Co., Ltd, priority 2020, published 2023).

Target: T1, SHP2 (Homo sapiens, UniProt Q06124)
T1 sequence (Q06124 1-593): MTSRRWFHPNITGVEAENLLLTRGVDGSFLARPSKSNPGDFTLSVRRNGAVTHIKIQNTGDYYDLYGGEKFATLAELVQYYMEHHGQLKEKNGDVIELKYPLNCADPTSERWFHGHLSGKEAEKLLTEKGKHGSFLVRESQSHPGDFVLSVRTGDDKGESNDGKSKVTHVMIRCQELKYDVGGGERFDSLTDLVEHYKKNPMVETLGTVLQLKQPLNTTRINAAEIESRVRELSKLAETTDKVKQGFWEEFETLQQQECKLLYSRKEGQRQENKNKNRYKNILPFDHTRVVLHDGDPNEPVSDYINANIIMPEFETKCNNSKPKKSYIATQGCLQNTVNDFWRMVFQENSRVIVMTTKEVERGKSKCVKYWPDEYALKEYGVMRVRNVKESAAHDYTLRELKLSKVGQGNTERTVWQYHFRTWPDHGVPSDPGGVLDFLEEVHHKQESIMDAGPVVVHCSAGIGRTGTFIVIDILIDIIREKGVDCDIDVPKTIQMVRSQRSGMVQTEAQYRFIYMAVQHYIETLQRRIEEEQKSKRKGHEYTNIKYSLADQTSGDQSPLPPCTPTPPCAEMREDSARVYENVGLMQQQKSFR
Assay: SHP2 allosteric inhibitor enzyme activity assay (DiFMUP fluorescence)
Type: biochemical
Conditions: class symbols
Summary of the method: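 SHP2 activated by 0.5 μM IRS1_pY1172(dPEG8)pY1222 peptide, 0.2 ng enzyme per well, 1 h at room temperature with compound (1 μM top, 3-fold series), then DiFMUP substrate 1 h. Buffer: 60 mM HEPES, 75 mM NaCl, 75 mM KCl, 0.05% BRIJ-35, 1 mM EDTA, 5 mM DTT. Fluorescence ex 340/em 450 nm; IC50 by variable-slope fit.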

Structure (SMILES)	IC50 [nM]
N[C@@H]1c2ccccc2CC12CCN(c1nc3[nH]nc(C4=CCC5(CC5)c5ccccc54)c3c(=O)[nH]1)CC2 [Example 132, (S)-6-(1-amino-1,3-dihydrospiro[indene-2,4′-piperidin]-1′-yl)-3-(2′H-spiro[cyclopropane-1,1′-naphthalen]-4′-yl)-1,5-dihydro-4H-pyrazolo[3,4-d]pyrimidin-4-one]	≤ 20
Cn1ncc2c1CC(C)(C)C=C2c1n[nH]c2nc(N3CCC4(CC3)Cc3ccccc3[C@H]4N)[nH]c(=O)c12 [Example 150, (S)-6-(1-amino-1,3-dihydrospiro[indene-2,4′-piperidin]-1′-yl)-3-(1,6,6-trimethyl-6,7-dihydro-1H-indazol-4-yl)-1,5-dihydro-4H-pyrazolo[3,4-d]pyrimidin-4-one]	≤ 20
C[C@@H]1OCC2(CCN(c3nc4[nH]nc(C5(c6ccccc6F)CC5)c4c(=O)[nH]3)CC2)[C@@H]1N [Example 294, 6-((3S,4S)-4-amino-3-methyl-2-oxa-8-azaspiro[4.5]decan-8-yl)-3-(1-(2-fluorophenyl)cyclopropyl)-1,5-dihydro-4H-pyrazolo[3,4-d]pyrimidin-4-one]	20 to 60
Cc1cc(C(F)F)c2c(n1)CCC=C2c1n[nH]c2nc(N3CCC4(CC3)Cc3ccccc3[C@H]4N)[nH]c(=O)c12 [Example 142, (S)-6-(1-amino-1,3-dihydrospiro[indene-2,4′-piperidin]-1′-yl)-3-(4-(difluoromethyl)-2-methyl-7,8-dihydroquinolin-5-yl)-1,5-dihydro-4H-pyrazolo[3,4-d]pyrimidin-4-one]	20 to 60
C[C@@H]1OCC2(CCN(c3nc4[nH]nc(C5(c6cccc(-n7cccn7)c6)CC5)c4c(=O)[nH]3)CC2)[C@@H]1N [Example 314, 3-(1-(3-(1H-pyrazol-1-yl)phenyl)cyclopropyl)-6-((3S,4S)-4-amino-3-methyl-2-oxa-8-azaspiro[4.5]decan-8-yl)-1,5-dihydro-4H-pyrazolo[3,4-d]pyrimidin-4-one]	> 60
C[C@@H]1OCC2(CCN(c3nc4[nH]nc(C5(c6cccnc6)CC5)c4c(=O)[nH]3)CC2)[C@@H]1N [Example 275, 6-((3S,4S)-4-amino-3-methyl-2-oxa-8-azaspiro[4.5]decan-8-yl)-3-(1-(pyridin-3-yl)cyclopropyl)-1,5-dihydro-4H-pyrazolo[3,4-d]pyrimidin-4-one]	20 to 60
N[C@@H]1c2ccccc2CC12CCN(c1nc3[nH]nc(C4=CS(=O)(=O)Nc5ccccc54)c3c(=O)[nH]1)CC2 [Example 183, (S)-6-(1-amino-1,3-dihydrospiro[indene-2,4′-piperidin]-1′-yl)-3-(2,2-dioxido-1H-benzo[c][1,2]thiazin-4-yl)-1,5-dihydro-4H-pyrazolo[3,4-d]pyrimidin-4-one]	≤ 20
C[C@@H]1OCC2(CCN(c3nc4[nH]nc(C5(c6ccc7c(c6)OC(F)(F)O7)CC5)c4c(=O)[nH]3)CC2)[C@@H]1N [Example 308, 6-((3S,4S)-4-amino-3-methyl-2-oxa-8-azaspiro[4.5]decan-8-yl)-3-(1-(2,2-difluorobenzo[d][1,3]dioxol-5-yl)cyclopropyl)-1,5-dihydro-4H-pyrazolo[3,4-d]pyrimidin-4-one]	> 60
C[C@@H]1OCC2(CCN(c3nc4[nH]nc(C5(c6ccncc6)CC5)c4c(=O)[nH]3)CC2)[C@@H]1N [Example 274, 6-((3S,4S)-4-amino-3-methyl-2-oxa-8-azaspiro[4.5]decan-8-yl)-3-(1-(pyridin-4-yl)cyclopropyl)-1,5-dihydro-4H-pyrazolo[3,4-d]pyrimidin-4-one]	20 to 60
CC1(C)C=C(c2n[nH]c3nc(N4CCC5(CC4)Cc4ccccc4[C@H]5N)[nH]c(=O)c23)c2cn(CC(F)(F)F)nc2C1 [Example 154, (S)-6-(1-amino-1,3-dihydrospiro[indene-2,4′-piperidin]-1′-yl)-3-(6,6-dimethyl-2-(2,2,2-trifluoroethyl)-6,7-dihydro-2H-indazol-4-yl)-1,5-dihydro-4H-pyrazolo[3,4-d]pyrimidin-4-one]	≤ 20
N[C@@H]1c2ccccc2CC12CCN(c1nc3[nH]nc(C4=CCCc5nc(C(F)(F)F)cc(C(F)(F)F)c54)c3c(=O)[nH]1)CC2 [Example 137, (S)-6-(1-amino-1,3-dihydrospiro[indene-2,4′-piperidin]-1′-yl)-3-(2,4-bis(trifluoromethyl)-7,8-dihydroquinolin-5-yl)-1,5-dihydro-4H-pyrazolo[3,4-d]pyrimidin-4-one]	20 to 60

The next lines start with the values.

IC50 [nM]	Structure (SMILES)
20 to 60	N[C@@H]1c2ccccc2CC12CCN(c1nc3[nH]nc(C4(c5nc6ccccc6[nH]5)CC4)c3c(=O)[nH]1)CC2 [Example 251, (S)-3-(1-(1H-benzo[d]imidazol-2-yl)cyclopropyl)-6-(1-amino-1,3-dihydrospiro[indene-2,4′-piperidin]-1′-yl)-1,5-dihydro-4H-pyrazolo[3,4-d]pyrimidin-4-one]
≤ 20	Nc1nccc(C2(c3n[nH]c4nc(N5CCC6(CC5)Cc5ccccc5[C@H]6N)[nH]c(=O)c34)CC2)c1F [Example 59, (S)-6-(1-amino-1,3-dihydrospiro[indene-2,4′-piperidin]-1′-yl)-3-(1-(2-amino-3-fluoropyridin-4-yl)cyclopropyl)-1,5-dihydro-4H-pyrazolo[3,4-d]pyrimidin-4-one]
≤ 20	N[C@@H]1c2ccccc2CC12CCN(c1nc3[nH]nc(C4(c5ccc(Cl)cc5Cl)CC4)c3c(=O)[nH]1)CC2 [Example 235, (S)-6-(1-amino-1,3-dihydrospiro[indene-2,4′-piperidin]-1′-yl)-3-(1-(2,4-dichlorophenyl)cyclopropyl)-1,5-dihydro-4H-pyrazolo[3,4-d]pyrimidin-4-one]
≤ 20	COc1ccc2c(c1)[C@@H](N)C1(CCN(c3nc4[nH]nc(C5(c6ccccc6)CC5)c4c(=O)[nH]3)CC1)C2 [Example 192, (S)-6-(1-amino-6-methoxy-1,3-dihydrospiro[indene-2,4′-piperidin]-1′-yl)-3-(1-phenylcyclopropyl)-1,5-dihydro-4H-pyrazolo[3,4-d]pyrimidin-4-one]
≤ 20	CP(C)(=O)c1cccc(C2(c3n[nH]c4nc(N5CCC6(CC5)Cc5ccccc5[C@H]6N)[nH]c(=O)c34)CC2)c1 [Example 224, (S)-6-(1-amino-1,3-dihydrospiro[indene-2,4′-piperidin]-1′-yl)-3-(1-(3-(dimethylphosphoryl)phenyl)cyclo-propyl)-1,5-dihydro-4H-pyrazolo[3,4-d]pyrimidin-4-one]
20 to 60	N[C@@H]1c2ccccc2CC12CCN(c1nc3[nH]nc(C4(c5ccccc5)CCCCC4)c3c(=O)[nH]1)CC2 [Example 99, (S)-6-(1-amino-1,3-dihydrospiro[indene-2,4′-piperidin]-1′-yl)-3-(1-phenylcyclohexyl)-1,5-dihydro-4H-pyrazolo[3,4-d]pyrimidin-4-one]
20 to 60	Cc1cc(C(F)(F)F)c2c(n1)CCC=C2c1n[nH]c2nc(N3CCC4(CC3)Cc3ccccc3[C@H]4N)[nH]c(=O)c12 [Example 140, (S)-6-(1-amino-1,3-dihydrospiro[indene-2,4′-piperidin]-1′-yl)-3-(2-methyl-4-(trifluoromethyl)-7,8-dihydroquinolin-5-yl)-1,5-dihydro-4H-pyrazolo[3,4-d]pyrimidin-4-one]
≤ 20	N[C@@H]1c2ccccc2CC12CCN(c1nc3[nH]nc(C4(c5ccnc(C(F)(F)F)c5)CC4)c3c(=O)[nH]1)CC2 [Example 27, (S)-6-(1-amino-1,3-dihydrospiro[indene-2,4′-piperidin]-1′-yl)-3-(1-(2-(trifluoromethyl)pyridin-4-yl)cyclopropyl)-1,5-dihydro-4H-pyrazolo[3,4-d]pyrimidin-4-one]
≤ 20	N#Cc1ccc2c(c1)[C@@H](N)C1(CCN(c3nc4[nH]nc(C5(c6ccccc6)CC5)c4c(=O)[nH]3)CC1)C2 [Example 197, (S)-1-amino-1′-(4-oxo-3-(1-phenylcyclopropyl)-4,5-dihydro-1H-pyrazolo[3,4-d]pyrimidin-6-yl)-1,3-dihydrospiro[indene-2,4′-piperidine]-6-carbonitrile]
≤ 20	COc1ccc(C2(c3n[nH]c4nc(N5CCC6(CC5)Cc5ccccc5[C@H]6N)[nH]c(=O)c34)CC2)c(OC)c1 [Example 232, (S)-6-(1-amino-1,3-dihydrospiro[indene-2,4′-piperidin]-1′-yl)-3-(1-(2,4-dimethoxyphenyl)cyclopropyl)-1,5-dihydro-4H-pyrazolo[3,4-d]pyrimidin-4-one]
≤ 20	CC1(C)CC=C(c2n[nH]c3nc(N4CCC5(CC4)Cc4ccccc4[C@H]5N)[nH]c(=O)c23)c2ccc(C(F)(F)F)nc21 [Example 145, (S)-6-(1-amino-1,3-dihydrospiro[indene-2,4′-piperidin]-1′-yl)-3-(8,8-dimethyl-2-(trifluoromethyl)-7,8-dihydroquinolin-5-yl)-1,5-dihydro-4H-pyrazolo[3,4-d]pyrimidin-4-one]
≤ 20	N[C@@H]1c2ccccc2CC12CCN(c1nc3[nH]nc(C4(c5ccccn5)CCC4)c3c(=O)[nH]1)CC2 [Example 93, (S)-6-(1-amino-1,3-dihydrospiro[indene-2,4′-piperidin]-1′-yl)-3-(1-(pyridin-2-yl)cyclobutyl)-1,5-dihydro-4H-pyrazolo[3,4-d]pyrimidin-4-one]
